Experimental data as given in US20230287021A1, “COMPOUNDS, COMPOSITIONS AND METHODS FOR STABILIZING TRANSTHYRETIN AND INHIBITING TRANSTHYRETIN MISFOLDING” (Protego Biopharma, Inc., priority 2020, published 2023).
Structures can show the parent of a compound that is named as a salt.

Assay: In vitro rat plasma stability assay, formation of tafamidis
Type: in vitro ADME
Details: 37° C., 2 µM test compound
Description: A stability assay in plasma (rat or human) was used to evaluate the ability of a compound provided herein to convert to an active TTR stabilizer. The test compound was added to plasma and incubated at 37° C. in a water bath at a concentration of 2 µM. At each time point (0, 10, 30, 60 and 120 min or 0, 60, 120, 180 and 240 min), stop solution (tolbutamide plus labetalol) was added to precipitate protein and mixed thoroughly. After centrifugation, an aliquot of supernatant was analyzed by LC-MS/MS. The percentage of formation of active agent was calculated at each time point.

Row | Structure (SMILES) | Formation of tafamidis at 120 min
1 | CC(C)(C)OC(=O)NCCOC(=O)c1ccc2nc(-c3cc(Cl)cc(Cl)c3)oc2c1 [Compound 10, 2-((tert-butoxycarbonyl)amino)ethyl 2-(3,5-dichlorophenyl) benzo [d]oxazole-6-carboxylate] | A (A is <25%)
2 | CN(CCO)C(=O)c1ccc2nc(-c3cc(Cl)cc(Cl)c3)oc2c1 [Compound 65, 2-(3,5-dichlorophenyl)-N-(2-hydroxyethyl)-N-methylbenzo [d] oxazole-6-carboxamide] | A (A is <25%)
3 | O=C(OCCC1CCOC1)c1ccc2nc(-c3cc(Cl)cc(Cl)c3)oc2c1 (stereo not shown) [Compound 96, 2-(tetrahydrofuran-3-yl)ethyl 2-(3,5-dichlorophenyl)benzo[d] oxazole-6-carboxylate] | C (C is ≥50 to <75%)
4 | Cc1oc(=O)oc1COC(=O)c1ccc2nc(-c3cc(Cl)cc(Cl)c3)oc2c1 [Compound 24, (5-methyl-2-oxo-1,3-dioxol-4-yl)methyl 2-(3,5-dichlorophenyl)benzo[d] oxazole-6-carboxylate] | D (D is ≥75%)
5 | CC(C)(C)OC(=O)N[C@H](Cc1ccc(OC(=O)c2ccc3nc(-c4cc(Cl)cc(Cl)c4)oc3c2)cc1)C(=O)O [Compound 70] | B (B is ≥25 to <50%)
6 | CC(C)(C)OC(=O)N[C@H](Cc1ccc(OC(=O)c2ccc3nc(-c4cc(Cl)cc(Cl)c4)oc3c2)cc1)C(=O)OCc1ccccc1 [Compound 69] | A (A is <25%)
7 | O=C(OCCC[n+]1ccccc1)c1ccc2nc(-c3cc(Cl)cc(Cl)c3)oc2c1.[Br-] [Compound 3, 1-(3-(2-(3,5-Dichlorophenyl)benzo[d]oxazole-6-carbonyloxy)propyl)-pyridinium bromide] | A (A is <25%)
8 | O=C(OC1CCOC1=O)c1ccc2nc(-c3cc(Cl)cc(Cl)c3)oc2c1 (stereo not shown) [Compound 21] | B (B is ≥25 to <50%)
9 | CC(C)(C)OC(=O)N[C@@H](Cc1cccc(OC(=O)c2ccc3nc(-c4cc(Cl)cc(Cl)c4)oc3c2)c1)C(=O)OCc1ccccc1 [Compound 19, (S)-3-(3-(benzyloxy)-2-((tert-butoxycarbonyl)amino)-3-oxopropyl) phenyl 2-(3,5-dichlorophenyl)benzo[d]oxazole-6-carboxylate] | B (B is ≥25 to <50%)
10 | O=C(OCCC[P+](c1ccccc1)(c1ccccc1)c1ccccc1)c1ccc2nc(-c3cc(Cl)cc(Cl)c3)oc2c1.[Br-] [Compound 4, (3-(2-(3,5-Dichlorophenyl)benzo[d]oxazole-6-carbonyloxy)propyl) triphenylphosphonium bromide] | A (A is <25%)
11 | N[C@H](Cc1ccc(OC(=O)c2ccc3nc(-c4cc(Cl)cc(Cl)c4)oc3c2)cc1)C(=O)O [Compound 71] | A (A is <25%)
12 | O=C(OCCCN1CCOCC1)c1ccc2nc(-c3cc(Cl)cc(Cl)c3)oc2c1 [Compound 81] | D (D is ≥75%)
13 | CN1CCN(CCOC(=O)c2ccc3nc(-c4cc(Cl)cc(Cl)c4)oc3c2)CC1 [Compound 93] | B (B is ≥25 to <50%)
14 | O=C(NCC(F)(F)F)c1ccc2nc(-c3cc(Cl)cc(Cl)c3)oc2c1 [Compound 67, 2-(3,5-dichlorophenyl)-N-(2,2,2-trifluoroethyl)benzo[d] oxazole-6-carboxamide] | A (A is <25%)
15 | NCCCOC(=O)c1ccc2nc(-c3cc(Cl)cc(Cl)c3)oc2c1 [Compound 25, 3-aminopropyl 2-(3,5-dichlorophenyl)benzo[d]oxazole-6-carboxylate hydrochloride] | A (A is <25%)
16 | O=C(NCCCO)c1ccc2nc(-c3cc(Cl)cc(Cl)c3)oc2c1 [Compound 68, 2-(3,5-dichlorophenyl)-N-(3-hydroxypropyl)benzo[d]oxazole-6-carboxamide] | A (A is <25%)
17 | CN1CCN(CCCOC(=O)c2ccc3nc(-c4cc(Cl)cc(Cl)c4)oc3c2)CC1 [Compound 94] | C (C is ≥50 to <75%)
18 | O=C(NCCO)c1ccc2nc(-c3cc(Cl)cc(Cl)c3)oc2c1 [Compound 64, 2-(3,5-dichlorophenyl)-N-(2-hydroxyethyl)benzo[d]oxazole-6-carboxamide] | A (A is <25%)
19 | O=C(OC1CCOC1)c1ccc2nc(-c3cc(Cl)cc(Cl)c3)oc2c1 (stereo not shown) [Compound 95] | D (D is ≥75%)

Row | Structure (SMILES) | Formation of tafamidis at 120 min
20 | CN1C[C@@H](O)[C@H](OC(=O)c2ccc3nc(-c4cc(Cl)cc(Cl)c4)oc3c2)C1 [Compound 56, (3R,4R)-4-hydroxy-1-methylpyrrolidin-3-yl 2-(3,5-dichlorophenyl)benzo[d] oxazole-6-carboxylate] | D (D is ≥75%)
21 | CC(C)(C)OC(=O)N[C@@H](Cc1cccc(OC(=O)c2ccc3nc(-c4cc(Cl)cc(Cl)c4)oc3c2)c1)C(=O)O [Compound 20, (S)-2-((tert-butoxycarbonyl)amino)-3-(3-((2-(3,5-dichlorophenyl)benzo [d]oxazole-6-carbonyl)oxy)phenyl)propanoic acid] | B (B is ≥25 to <50%)
22 | CN(CCOC(=O)c1ccc2nc(-c3cc(Cl)cc(Cl)c3)oc2c1)C(=O)OC(C)(C)C [Compound 8, 2-((tert-butoxycarbonyl)(methyl)amino)ethyl 2-(3,5-dichlorophenyl) benzo[d] oxazole-6-carboxylate] | D (D is ≥75%)
23 | CC(C)(C)OC(=O)N1CCC(OC(=O)c2ccc3nc(-c4cc(Cl)cc(Cl)c4)oc3c2)C1 (stereo not shown) [Compound 16, 1-(tert-butoxycarbonyl)pyrrolidin-3-yl 2-(3,5-dichlorophenyl) benzo[d]oxazole-6-carboxylate] | B (B is ≥25 to <50%)
24 | CC(=O)OCC(COC(C)=O)OC(=O)c1ccc2nc(-c3cc(Cl)cc(Cl)c3)oc2c1 [Compound 2, 2-(2-(3,5-Dichlorophenyl)benzo[d]oxazole-6-carbonyloxy)propane-1,3-diyl diacetate] | B (B is ≥25 to <50%)
25 | C[C@H](COC(=O)c1ccc2nc(-c3cc(Cl)cc(Cl)c3)oc2c1)N(C)C [Compound 45, (R)-2-(dimethylamino)propyl 2-(3,5-dichlorophenyl)benzo[d] oxazole-6-carboxylate] | C (C is ≥50 to <75%)
26 | C[N+](C)(C)CCOC(=O)c1ccc2nc(-c3cc(Cl)cc(Cl)c3)oc2c1.[Cl-] [Compound 29, 2-((2-(3,5-dichlorophenyl)benzo[d]oxazole-6-carbonyl)oxy)-N,N,N-trimethylethanaminium chloride] | A (A is <25%)
27 | NCCOC(=O)c1ccc2nc(-c3cc(Cl)cc(Cl)c3)oc2c1 [Compound 15, 2-aminoethyl 2-(3,5-dichlorophenyl)benzo[d]oxazole-6-carboxylate] | A (A is <25%)
28 | CC(C)(C)OC(=O)N[C@@H](Cc1ccc(OC(=O)c2ccc3nc(-c4cc(Cl)cc(Cl)c4)oc3c2)cc1)C(=O)OCc1ccccc1 [Compound 18, (S)-4-(3-(benzyloxy)-2-((tert-butoxycarbonyl)amino)-3-oxopropyl) phenyl 2-(3,5-dichlorophenyl)benzo[d]oxazole-6-carboxylate] | C (C is ≥50 to <75%)
29 | CNCCOC(=O)c1ccc2nc(-c3cc(Cl)cc(Cl)c3)oc2c1 [Compound 9, 2-(methylamino)ethyl 2-(3,5-dichlorophenyl)benzo[d]oxazole-6-carboxylate hydrochloride] | A (A is <25%)
30 | CC(C)(C)OC(=O)N[C@H](Cc1cccc(OC(=O)c2ccc3nc(-c4cc(Cl)cc(Cl)c4)oc3c2)c1)C(=O)O [Compound 72] | B (B is ≥25 to <50%)
31 | O=C(OCCCN1CCS(=O)(=O)CC1)c1ccc2nc(-c3cc(Cl)cc(Cl)c3)oc2c1 [Compound 84] | D (D is ≥75%)
32 | O=C(OCCCC1CCCO1)c1ccc2nc(-c3cc(Cl)cc(Cl)c3)oc2c1 (stereo not shown) [Compound 101] | C (C is ≥50 to <75%)
33 | O=C(OC[C@H]1O[C@@H](O)C(O)[C@H](O)C1O)c1ccc2nc(-c3cc(Cl)cc(Cl)c3)oc2c1 (stereo partly shown) [Compound 5, (3,4,5,6-Tetrahydroxytetrahydro-2H-pyran-2-yl)methyl 2-(3,5-Dichlorophenyl) Benzo[d]oxazole-6-Carboxylate] | A (A is <25%)
34 | CN(C)CCCCCOC(=O)c1ccc2nc(-c3cc(Cl)cc(Cl)c3)oc2c1 [Compound 51, 5-(dimethylamino)pentyl 2-(3,5-dichlorophenyl)benzo[d] oxazole-6-carboxylate] | D (D is ≥75%)
35 | O=C(OCc1ncco1)c1ccc2nc(-c3cc(Cl)cc(Cl)c3)oc2c1 [Compound 91] | C (C is ≥50 to <75%)
36 | Cc1oc(=O)n(C)c1COC(=O)c1ccc2nc(-c3cc(Cl)cc(Cl)c3)oc2c1 [Compound 30, (3,5-dimethyl-2-oxo-2,3-dihydrooxazol-4-yl)methyl 2-(3,5-dichlorophenyl) benzo[d]oxazole-6-carboxylate] | B (B is ≥25 to <50%)
37 | CN(C)CCOC(=O)c1ccc2nc(-c3cc(Cl)cc(Cl)c3)oc2c1 [Compound 6, 2-(dimethylamino)ethyl 2-(3,5-dichlorophenyl)benzo-[d]oxazole-6-carboxylate hydrochloride] | D (D is ≥75%)
